From US5348956A, “Substituted cyclopropylamino-1,3,5-triazines” (UCB S.A., priority 1991, dated 1994)
Where a name gives a salt, the structure may show the parent alone. Read-outs that look alike come from different tables or passages of the source.

How the values were obtained:
serotonergic activity = experiment: "wet dog shake" (WDS) behavior, serotonergic activity; assay type: in vivo, male Sprague-Dawley rats
Experimental: A decrease in serotonergic activity has been correlated with the occurrence of affective disorders, such as depression and anxiety. […] The test is carried out in the morning on male Sprague-Dawley rats (±180 g), divided the previous day into groups of 8 animals in residence cages. The cage used for the tests is a transparent enclosure of 12×24×30 cm in height, the floor of which is covered with a layer of sand. The compounds to be tested, dissolved either in physiological salt solution or in a citrate buffer of pH 5, are administered intraperitoneally in a different dose for each group treated. The control groups receive an intraperitoneal injection of the same vehicle (either physiological salt solution or citrate buffer). […] The mean values of the results are calculated and analyzed statistically by the Mann-Whitney method. The mean values of the number of shakes obtained for the compounds according to the invention administered intraperitoneally at the doses indicated (in mg/kg) are given in Table V below.

[1] = system: bronchospasm induced by serotonin; experiment: bronchospasmolytic activity (Konzett and Roessler), bronchospasm induced by serotonin; assay type: in vivo, Dunkin-Hartley guinea-pig; conditions: Cavia porcellus; intravenous; serotonin-induced bronchospasm; read-out: Doses (ID50), Serotonin
Experimental: (§1) This activity was measured in the Dunkin-Hartley guinea-pig by the method of H. KONZETT and […] (Naunyn Schmiedebergs Arch. exp. Path. […] The anesthetized (urethane) and curarized (gallamine) guinea-pig is placed under assisted respiration. The endotracheal pressure is recorded. […] The compound to be tested is also administered intravenously two minutes before the administration of the spasmogen and then in 3 to 4 cumulative doses in increasing amounts at intervals of 15 minutes. Six animals per compound to be tested and per spasmogen are used.

toxicity, Irwin's test = assay type: in vivo; conditions: i.p.; death of two animals out of three within 48 hours
Experimental: Progressive doses of the compound to be tested are administered intraperitoneally to groups of three mice until the lethal dose is reached (dose which causes the death of two animals out of three within 48 hours).

[2] = system: bronchospasm induced by acetylcholine; experiment: bronchospasmolytic activity (Konzett and Roessler), bronchospasm induced by acetylcholine; assay type: in vivo, Dunkin-Hartley guinea-pig; conditions: Cavia porcellus; intravenous; acetylcholine-induced bronchospasm; read-out: Doses (ID50), Acetylcholine
Experimental: as §1

[3] = system: anaphylactic release of histamine, guinea-pig lung sections; experiment: potentiation of the inhibition of anaphylactic histamine release by isoprenaline; assay type: cell-based, Dunkin-Hartley guinea-pigs; conditions: with isoprenaline 10^-7 mole per liter
Experimental: (§2) Dunkin-Hartley guinea-pigs which are first passively sensitized by an intravenous injection of 1 ml of isologous antiovalbumin serum are used. Twenty-four hours after the injection, the lungs are then perfused with a Tyrode buffer to evacuate the blood, and then removed and cut into sections of 1 mm. These sections are divided up into test tubes (3 sections per tube) to give 10 experimental groups of lung sections per guinea-pig. A "positive" control group of lung sections is stimulated by addition of an ovalbumin solution (0.1 mg/ml) to induce the anaphylactic release of histamine and serves to determine the maximum amount of histamine (100%) which can be released. A "negative" control group which is not stimulated by ovalbumin serves to determine the naturally released amount of histamine (spontaneous release). In three other groups, the lung sections are incubated at 37° C. for 30 minutes in the ovalbumin solution in the presence of three different doses of the compound to be tested (one dose per group). […] At this dose, isoprenaline inhibits the release of histamine by 30 to 40%, which is verified on a control group treated only with isoprenaline alone at this dose. In addition, a supplementary control group which is not stimulated by ovalbumin is used to detect a possible spontaneous release of histamine by the highest dose of the compound tested. In each group, the histamine released in the incubation medium is measured by spectrofluorometry (D. P. EVANS et al., Life Sci., 12, (1973), 327-336).

[4] = system: bronchospasm induced by histamine; experiment: bronchospasmolytic activity (Konzett and Roessler), bronchospasm induced by histamine; assay type: in vivo, Dunkin-Hartley guinea-pig; conditions: Cavia porcellus; intravenous; histamine-induced bronchospasm; read-out: Doses (ID50), Histamine
Experimental: as §1

[5] = system: plantar edema induced by immune complexes; experiment: "reverse passive Arthus" (RPA) test, anti-inflammatory and anti-edema activity; assay type: in vivo, Sprague-Dawley rat; conditions: Rattus norvegicus, intravenous
Experimental: The reaction between a soluble antigen and antibodies in the organism may lead to an acute inflammatory reaction accompanied by release of histamine, modification of vascular permeability and formation of a localized edema. […] To this end, the Arthus reaction is induced by subplantar administration of 0.1 ml of heterologous antivalbumin reaginic serum into the right hind paw and by simultaneous intravenous injection of 1 ml/kg ovalbumin (25 mg/ml). The compound to be tested is administered intravenously 30 seconds before induction of the Arthus reaction, in a least 3 different doses. A group of 6 rats is used per dose of compound to be tested. The volume of the paw is measured by plethysmometry before the Arthus reaction and 3 to 5 hours after induction of the Arthus reaction, both in the control animals and in the treated animals. The effect of a compound on the reduction in the edema for each dose and at each measurement time (3 hours and 5 hours) is expressed in % of the edema observed in the control animals. The doses of the compounds (ID30 in μmole/kg) which inhibit by 30%, on average over all the animals, the volume of the edema observed in the control animals are given in Table VII below.

[6] = system: anaphylactic release of histamine, guinea-pig lung sections; experiment: inhibition of the anaphylactic release of histamine (proper effect); assay type: cell-based, Dunkin-Hartley guinea-pigs; conditions: Cavia porcellus, in vitro, read-out: Minimum inhibitory dose (MID)
Experimental: as §2

[7] = system: longitudinal muscles of the ileum contracted by histamine; experiment: potentiation of the myorelaxing effect of isoprenaline on the ileum; assay type: cell-based, Dunkin-Hartley guinea-pigs; conditions: with isoprenaline 10^-7 mole/l; histamine 3.2 μmoles/l
Experimental: (cf. R. A. TURNER, "Screening Methods in Pharmacology", Ed. Acad. Press, San Diego, 1965, chapter IV, pages 43-47). […] Inhibition cycle: When the successive contractions induced by the histamine injections have become reproducible, the compound to be tested is injected immediately after the second wash. The contraction induced by the following injection of histamine is measured and compared with the average of the three preceding contractions caused by the repeated injections of histamine (control contractions). From the result obtained, the percentage inhibition of the contraction is calculated. Several cycles of histamine injection are then performed again, until the contractions of the muscle become reproducible again; the muscle is then ready for testing of another compound. The potentiating effect of a compound is measured in the course of a so-called "potentiation" cycle, which comprises three successive inhibition cycles. […] In the course of the second inhibition cycle, the percentage inhibition of the contraction obtained with the compound to be tested, injected alone at a given dose, is determined. In the third inhibition cycle, isoprenaline and the compound to be tested are injected simultaneously, and the percentage inhibition of the contraction is calculated for the dose used of the compound tested. The same experiments are repeated for each of the doses of the compounds tested.

[8] = 3 hours after induction of the Arthus reaction, read-out: Dose (ID30), 3 hours
[9] = 5 hours after induction of the Arthus reaction, read-out: Dose (ID30), 5 hours

Compound	ED50 [1] [µmol/kg]	Lethal dose (toxicity, Irwin's test) [mg/kg]	ED50 [2] [µmol/kg]	Minimum potentiating dose (MPD) [3] [µmol/L]	ED50 [4] [µmol/kg]	ED30 [5, 8] [µmol/kg]	ED30 [5, 9] [µmol/kg]	minimal effective concentration [6] [µM]	Minimum potentiating dose (MPD) [7] [µmol/L]	further results
N[C@@H](Cc1c[nH]c2ccc(O)cc12)C(=O)O [5-HTP/carbidopa, 5-hydroxytryptophan, reference compound]										Average number of shakes (serotonergic activity; 5-HTP 100.0 mg/kg i.p. after carbidopa 25 mg/kg i.p., measured 90 to 120 minutes after 5HTP): 4.7 ± 1.5 shakes; Average number of shakes (serotonergic activity; 5-HTP 200.0 mg/kg i.p. after carbidopa 25 mg/kg i.p., measured 90 to 120 minutes after 5HTP): 19.6 ± 3.0 shakes
C1CCC(c2nc(NC3CC3)nc(N3CCOCC3)n2)C1 [Compound 8]	0.3	326	0.2	10.0	0.1	4	4	1		
O=C1CN(c2nc(NC3CC3)nc(C3CC3)n2)C1 [Compound 17]	0.2	281.5	0.2	1.0	0.1	1	1	3.2	0.32	Average number of shakes (serotonergic activity; 2.8 mg/kg i.p., counted over 30 minutes): 10.5 ± 2.9 shakes
C1CN(c2nc(NC3CC3)nc(C3CC3)n2)CCS1 [Compound 18, 2-Cyclopropyl-4-cyclopropylamino-6-thiomorpholino-1,3,5-triazine]		277		1.0	0.003	1	1	0.1	0.1	Average number of shakes (serotonergic activity; 0.88 mg/kg i.p., counted over 30 minutes): 10.6 ± 3.0 shakes
[O-][S+]1CCN(c2nc(NC3CC3)nc(C3CC3)n2)CC1 [Compound 19, 2-Cyclopropyl-4-cyclopropylamino-6-thiomorpholino-1,3,5-triazine S-oxide]	0.04	175.6	0.1	0.1	0.02	0.02	0.02	1	0.32	Average number of shakes (serotonergic activity; 0.94 mg/kg i.p., counted over 30 minutes): 16.0 ± 4.7 shakes
O=S1(=O)CCN(c2nc(NC3CC3)nc(C3CC3)n2)CC1 [Compound 20, 2-Cyclopropyl-4-cyclopropylamino-6-thiomorpholino-1,3,5-triazine S,S-dioxide]	0.4	185	0.1	0.32	0.03	1	0.5	1	0.1	Average number of shakes (serotonergic activity; 0.99 mg/kg i.p., counted over 30 minutes): 13.6 ± 2.3 shakes
C1CN(c2nc(NC3CC3)nc(C3CC3)n2)CS1 [Compound 21, 2-Cyclopropyl-4-cyclopropylamino-6-(3-thiazolidinyl)-1,3,5-triazine]		263		0.32				0.1		Average number of shakes (serotonergic activity; 2.63 mg/kg i.p., counted over 30 minutes): 5.5 ± 2.0 shakes
O=S1(=O)CCN(c2nc(NC3CC3)nc(C3CC3)n2)C1 [Compound 22, 2-Cyclopropyl-4-cyclopropylamino-6-(3-thiazolidinyl)-1,3,5-triazine S,S-dioxide]		295		0.032				0.1		Average number of shakes (serotonergic activity; 0.95 mg/kg i.p., counted over 30 minutes): 8.1 ± 1.7 shakes
[O-][S+]1CCN(c2nc(NC3CC3)nc(C3CC3)n2)C1 (centres unmarked) [Compound 23, 2-Cyclopropyl-4-cyclopropylamino-6-(3-thiazolidinyl)-1,3,5-triazine S-oxide]		156								
CC1(c2nc(NC3CC3)nc(N3CCOCC3)n2)CC1 [Compound 24, 2-Cyclopropylamino-4-(1-methylcyclopropyl)-6-morpholino-1,3,5-triazine]		825		0.32	0.04			0.032		Average number of shakes (serotonergic activity; 2.75 mg/kg i.p., counted over 30 minutes): 6.1 ± 2.3 shakes
CC1CC1c1nc(NC2CC2)nc(N2CCOCC2)n1.Cl (centres unmarked) [Compound 25, 2-Cyclopropylamino-4-(2-methylcyclopropyl)-6-morpholino-1,3,5-triazine hydrochloride]		99.7		0.032				0.032		Average number of shakes (serotonergic activity; 1.0 mg/kg i.p., counted over 30 minutes): 19.6 ± 5.0 shakes
O=S1(=O)CCN(c2nc(NC3CC3)nc(C3CCC3)n2)CC1 [Compound 26, 2-Cyclobutyl-4-cyclopropylamino-6-thiomorpholino-1,3,5-triazine S,S-dioxide hydrochloride]		201.5		0.32	0.03			1		Average number of shakes (serotonergic activity; 1.15 mg/kg i.p., counted over 30 minutes): 11.8 ± 4.3 shakes
